Measurements taken from US20240240126A1, “Microfluidic Barcode-Like Cell Sensor For Microscope-Free Quantitative Detection Of Small Amount Of Cells” (Hong Kong Baptist University, priority 2021, published 2024).
Converted amounts (≈) assume the structure as drawn.

Columns and labels:
E. coli [1] = conditions: CLSI reference range; cited from earlier work
S. aureus [2] = conditions: CLSI reference range; cited from earlier work
S. aureus [3] = assay: Broth microdilution AST; format: cell-based, Staphylococcus aureus (ATCC 29213)
Protocol: (§1) To conduct an AST on the PP-based AST chip, bacteria were pre-activated inside an incubator for 15 minutes at 37° C. before use. At the beginning of a test, the bacteria are injected through Inlet 3; the injection of the bacteria was monitored under the fluorescence microscope (FIG. 24A). After the bacteria were inoculated into the cultivation chambers, antibiotic-doped media and media alone are injected into inlet 1 and inlet 2 at a rate of 1 μL/minute, respectively (FIG. 24B). The AST chip was then incubated on a thermostat platform at 37° C. for 2 hours. To assess AMR, the bacteria inside the culture chambers of the PP AST chip were flushed into the barcode cell sensor at a rate of 1 μL/minute. […] For comparison, AST was also performed using the traditional broth microdilution method as shown in FIG. 27; the MIC values of the bacteria were assessed as the lowest concentration of antibiotics with no visible growth of bacteria.
(§2) The broth microdilution (BMD) testing of the samples was performed exactly the same according to the approved standard from CLSI and the procedures described in Nature Protocol. […] To assess the MIC values for the samples, the microplates were examined visually and the lowest concentration of the antibiotic which prevents visible growth of the bacteria was recorded as the MIC value of that sample.

E. coli [4] = assay: Broth microdilution AST; format: cell-based, Escherichia coli (ATCC 25922)
Protocol: as §1, §2

E. coli [5] = assay: AST with the present barcode cell sensor (PP microfluidic AST chip); format: cell-based, Escherichia coli (ATCC 25922)
Protocol: as §1
As said, the bacteria samples have been flushed into the “barcode” cell sensor after 2 hours incubation, the accumulated bacteria bars with different lengths will be formed. […] Thus, the MIC value of the samples can be assessed by looking at the point (in a specific concentration of a given antibiotic) of the bacterial growth with significant differences using the comparison of the log [slope] values. […]

S. aureus [6] = assay: as above; format: cell-based, Staphylococcus aureus (ATCC 29213)
Protocol: To conduct an AST on the PP-based AST chip, bacteria were pre-activated inside an incubator for 15 minutes at 37° C. before use. At the beginning of a test, the bacteria are injected through Inlet 3; the injection of the bacteria was monitored under the fluorescence microscope (FIG. 24A). After the bacteria were inoculated into the cultivation chambers, antibiotic-doped media and media alone are injected into inlet 1 and inlet 2 at a rate of 1 μL/minute, respectively (FIG. 24B). The AST chip was then incubated on a thermostat platform at 37° C. for 2 hours. To assess AMR, the bacteria inside the culture chambers of the PP AST chip were flushed into the barcode cell sensor at a rate of 1 μL/minute. Gram staining agent was used during the flushing process to make bacteria inside the barcode cell sensor visible be captured by a cell phone camera. For comparison, AST was also performed using the traditional broth microdilution method as shown in FIG. 27; the MIC values of the bacteria were assessed as the lowest concentration of antibiotics with no visible growth of bacteria.

mixed bacteria sample = assay: Broth microdilution AST of mixed bacteria sample; format: cell-based
Protocol: (§3) The broth microdilution (BMD) testing of the samples was performed exactly the same according to the approved standard from CLSI and the procedures described in Nature Protocol. To perform the BMD test, both LB broth medium and the antibiotics were added into the 96-wells microplate. By using a two-fold dilution, a concentration gradient of the antibiotic is generated from 128 μg/mL to 0.125 μg/mL. The bacteria isolates identified inside the samples have been enriched under 37° C. for 8-12 hrs in order to achieve 5×10^6 CFU/mL before the test, 10 uL of the bacterial suspension was inoculated into the broth to achieve a final concentration of bacteria in 5×10^5 CFU/mL. The inoculated microplates were incubated at 37° C. for 16-20 hrs for further inspection. To assess the MIC values for the samples, the microplates were examined visually and the lowest concentration of the antibiotic which prevents visible growth of the bacteria was recorded as the MIC value of that sample. Meanwhile, Mueller Hinton broth was also used to perform the BMD for cross checking purpose; both of the AST results are consistence with the MIC quality control range recommended by CLSI.
(§4) According to the AST results of the present disclosure, all those identified isolates (isolates 1-8) have shown susceptibility to Gentamicin where all of them are resistant to Ampicillin at the same time. […]

[7] = system: identified isolates (isolates 1-8); assay: AST of the identified drinking water isolates, overall statement; format: cell-based; conditions: all identified isolates 1-8
Protocol: as §3, §4

Isolate 2 = assay: Broth microdilution AST of drinking water isolate; format: cell-based, Citrobacter youngae; design: key: R stands for resistant; conditions: Isolate 2 from drinking water samples
Protocol: (§5) All tested samples were collected between June 2019 to November 2019 according to the guidelines from ISO 18593:2018 Microbiology of the food chain—Horizontal methods for surface sampling. Also, all of the samples were collected from the drinking fountains in government venues and university facilities, at ten different locations. As said, the surface of the outlet for the drinking fountains was tested by swabbing. In simple words, the surfaces of the drinking fountain's outlet were rubbed by a single use sterilize cotton swab and swished into the Lysogeny broth (LB) broth solution for 1 minute to prepare the sample solutions. Collected samples were kept at 4° C. during the transportation and enriched for 12-14 hours under 37° C. After the enrichment for bacteria, the sample suspensions were spread and streaked onto the LB agar for further bacterial isolation and AST uses. […] If an ID is needed, dilution plating can be used. Besides, antifungals and algal inhibitors can also be added into these samples to against and inhibit the growth of fungi, yeast, and algae.
(§6) All tested samples were collected from drinking fountains at ten different locations in various government venues and university facilities. Sample containers were kept sterile before use in sample collection; the collected samples were kept at 4° C. and analyzed within 24 hours of collection. Sample collection was conducted 3 times for each sampling site and the antimicrobial susceptibility of each sample was tested 3 times. (FIG. 5) Bacterial identification for the real samples was made through the use of Matrix-Assisted Laser Desorption Ionization Time of Flight Imaging Mass Spectrometry (MALDI-TOF IMS). 1 uL of the sample was pipetted onto an Indium tin oxide (ITO) coated glass slide and allowed to dry on a hotplate; the ITO slide with bacteria was then analyzed by MALDI-TOF IMS immediately following matrix application. (FIG. 6, Table 2)
as §3
(§7) Based on the findings in the present disclosure, multiple bacterial species have been recognized in the testing samples, including bacterial species that have the potential to form biofilm and colonize on the surface of the water dispenser (Table 2). Traditional broth microdilution AST was also performed to verify the AMR assessment results of the present sensor according to the approved standard from CLSI (FIGS. 27A and 27B, Table 4). […] As AMR microbes can exist in the environment all around us, close enough to come into contact with in daily life, they may pose a significant threat to the effective treatment of bacterial infections in the near future if no action is taken. […]

Isolate 7 = assay: Broth microdilution AST of drinking water isolate; format: cell-based, Citrobacter youngae; design: key: R stands for resistant; conditions: Isolate 7 from drinking water samples
Protocol: as §5, §6, §3, §7

Isolate 6 = assay: Broth microdilution AST of drinking water isolate; format: cell-based, Citrobacter youngae; design: key: R stands for resistant; conditions: Isolate 6 from drinking water samples
Protocol: as §5, §6, §3, §7

Isolate 1 = assay: Broth microdilution AST of drinking water isolate; format: cell-based, Staphylococcus epidermidis; design: key: R stands for resistant; conditions: Isolate 1 from drinking water samples
Protocol: as §5, §6
as §2, with “Protocol. To perform the BMD test, both LB broth medium and the antibiotics were added into the 96-wells microplate. By using a two-fold dilution, a concentration gradient of the antibiotic is generated from 128 μg/mL to 0.125 μg/mL.” for “Protocol.”, “sample. […]” for “sample.”

Isolate 5 = assay: Broth microdilution AST of drinking water isolate; format: cell-based, Staphylococcus epidermidis; design: key: R stands for resistant; conditions: Isolate 5 from drinking water samples
Protocol: as §5, §6
as §2, with “Protocol. To perform the BMD test, both LB broth medium and the antibiotics were added into the 96-wells microplate. By using a two-fold dilution, a concentration gradient of the antibiotic is generated from 128 μg/mL to 0.125 μg/mL.” for “Protocol.”, “sample. […]” for “sample.”

Isolate 4 = assay: Broth microdilution AST of drinking water isolate; format: cell-based, Staphylococcus capitis; design: key: R stands for resistant; conditions: Isolate 4 from drinking water samples
Protocol: as §5, §6, §3, §7

Isolate 8 = assay: Broth microdilution AST of drinking water isolate; format: cell-based, Staphylococcus capitis; design: key: R stands for resistant; conditions: Isolate 8 from drinking water samples
Protocol: as §5, §6, §3, §7

Isolate 3 = assay: Broth microdilution AST of drinking water isolate; format: cell-based, Staphylococcus capitis; design: key: R stands for resistant; conditions: Isolate 3 from drinking water samples
Protocol: as §5, §6, §3, §7

CC[C@H]1OC(=O)[C@H](C)[C@@H](O[C@H]2C[C@@](C)(OC)[C@@H](O)[C@H](C)O2)[C@H](C)[C@@H](O[C@@H]2O[C@H](C)C[C@H](N(C)C)[C@H]2O)[C@](C)(O)C[C@@H](C)C(=O)[C@H](C)[C@@H](O)[C@]1(C)O [Erythromycin, erythromycin]
MIC-CLSI (E. coli [1]): Resistant
MIC-CLSI (S. aureus [2]): 0.25 to 1 µg/mL
MIC (S. aureus [3]; Staphylococcus aureus): 0.25 to 1 µg/mL (≈ 0.341 to 1.36 µM)
MIC-Broth Microdilution (E. coli [4]): Resistant
MIC-"barcode" Chip (E. coli [5]): Resistant
MIC (S. aureus [6]; Staphylococcus aureus): 0.4 to 0.6 µg/mL (≈ 0.545 to 0.818 µM)

Gentamicin
MIC value (mixed bacteria sample; FIG. 27A): 4 to 8 µg/mL
AST result in words (susceptibility / resistance) [7]: susceptibility
MIC-CLSI (E. coli [1]): 0.25 to 1 µg/mL
MIC-CLSI (S. aureus [2]): 0.12 to 1 µg/mL
MIC-Broth Microdilution (S. aureus [3]): 0.25 to 0.5 µg/mL
MIC-Broth Microdilution (E. coli [4]): 0.25 to 0.5 µg/mL
AST result (MIC) (Isolate 2): 16 µg/mL
AST result (MIC) (Isolate 7): 16 to 32 µg/mL
AST result (MIC) (Isolate 6): 2 to 4 µg/mL
AST result (MIC) (Isolate 1): 4 µg/mL
AST result (MIC) (Isolate 5): 4 µg/mL
AST result (MIC) (Isolate 4): 16 to 32 µg/mL
AST result (MIC) (Isolate 8): 16 to 32 µg/mL
AST result (MIC) (Isolate 3): 16 µg/mL
MIC-"barcode" Chip (S. aureus [6]): 0.25 to 0.5 µg/mL

CC1(C)S[C@@H]2[C@H](NC(=O)[C@H](N)c3ccccc3)C(=O)N2[C@H]1C(=O)O [Ampicillin]
AST result in words (mixed bacteria sample; FIG. 27B): resistance
AST result in words (susceptibility / resistance) [7]: resistant
MIC-CLSI (E. coli [1]): 2 to 8 µg/mL
MIC-CLSI (S. aureus [2]): 0.5 to 2 µg/mL
AST result (MIC) (Isolate 2): R
AST result (MIC) (Isolate 7): R
AST result (MIC) (Isolate 6): R
AST result (MIC) (Isolate 1): R
AST result (MIC) (Isolate 5): R
AST result (MIC) (Isolate 4): R
AST result (MIC) (Isolate 8): R
AST result (MIC) (Isolate 3): R
